Here are results for five compounds from patent US6596498B1, “Bone stimulating factor” (Osteopharm Inc., priority 1993, dated 2003).

“Also recorded” adds a separate entry of the source. Ends that are not written are not given here.

The conditions of series [1]: 24 mg/kg of body weight intravenously, rat; serum level by bioassay; cited from earlier work.
Series [2] has as its system parathyroidectomized rats. Put plainly: Histological evaluation of selected tissues for toxic lesions after miniosmotic pump implantation. The series is classed as in vivo, rat. The following applies: about 25 μg per day by miniosmotic pump, about 31 days. The protocol:
A miniosmotic pump (Alzet) was loaded with about 1.5 ml of the chemically synthesized peptide having an N-terminal acetyl group (SEQ ID NO:12) in 0.1% acetic acid so as to give a calculated daily delivery of about 25 μg per day. A pump was implanted under the subcutaneous fascia of the dorsal aspect of the left side of the thorax of five rats which had been parathyroidectomized seven days earlier. Five similarly parathyroidectomized rats received similar implants containing only 0.1% acetic acid. Five intact rats were also used as controls.
Histological evaluation of selected tissues of the five rats of each of the groups indicated in Table Four were carried out microscopically.

Series [3] concerns ovariectomized rats. As to the kind of experiment: Autopsy of ovariectomized rats after daily peptide injection. The series is classed as in vivo, rat. The following applies: 100 μg s.c. daily for eight weeks. The protocol:
The six ovariectomized rats were injected subcutaneously with 100 μl of a 0.1% acetic acid solution containing 100 μg of the chemically synthesized peptide (SEQ ID NO:11) every 24 hours for 28 days. […] Postmortem blood was taken by cardiac puncture and serum frozen until analyzed. A full autopsy was performed on each rat. […] Eight weeks after ovariectomization, five ovariectomized rats were injected subcutaneously with 100 μl of a 0.1% acetic acid solution containing 100 μg of the chemically synthesized peptide in which the N-terminal amino group was modified with an acetyl group (SEQ ID NO:12). This was done every 24 hours for eight weeks. […] Postmortem blood was taken by cardiac puncture and serum frozen until analyzed. An autopsy was performed on each rat.

Series [4] has as its system intact rats. As to the kind of experiment: Bone mineral apposition rate by tetracycline labelling in intact rats. The series is classed as in vivo, rat.
Series [5] has as its system intact rats. The series is described as above. The series is classed as in vivo, rat. From the text: Tetracycline is excited by long UV light (i.e., with a range close to the blue range) and a bright yellow fluorescence is emitted, which fluorescence is detectable in bone sections viewed with a fluorescence microscope. Tetracycline labels a bone surface when a newly formed collagen matrix begins to incorporate calcium and when such surface is sectioned, the tetracycline appears as a yellow fluorescent band. A subsequently administered dose of tetracycline appears as a second band located superficial to the first band. The distance between the two bands represent the thickness of bone matrix formed in the interval between the two doses. The rate of bone deposition can be calculated by dividing the distance with the time interval between doses. Errors can be introduced by cuts which are not perpendicular to the growing bone surface. To reduce this error, only sites in which the two bands were distinct and parallel to each other were used. Measurements made on 10 randomly chosen sites fulfilling this requirement were chosen to give readings close to the arithmetic mean of the rate.
The measuring system used was a Leitz scanning light microscope photometer MPV-CD with a UV source being provided by a 100 W stabilized mercury burner. Sections were generally magnified using 16× objective using a moving scanning slit, the intensity of the fluorescent band was amplified and recorded. The light signal was transformed into digital output and the profile of the tetracycline intensity recorded. The instrument carries a mechanical error of less than 5%. The distance measured was periodically calibrated with a microscopic grid and a good correlation was found, as shown in FIG. 2.
Intact 400-420 g male rats were used for testing. A control group received the carrier buffer of 50 mM sodium phosphate (pH 7.2). […]
The unstained plastic embedded sections were viewed under a fluorescence microscope with a ×16 objective and ×10 eyepieces systematically to cover the trabecular bone in the space enclosed by the endosteal surface. […]
The source holds these as a separate data set.

Series [6] relates to ovariectomized rats. As to the kind of experiment: Bone mineral apposition rate in ovariectomized rats. The series is classed as in vivo, rat. The following applies: 100 μg s.c. every 24 hours for 28 days; lower metaphysis of left femur; untreated OVX 0.59, sham 0.85, intact 0.86. How it is done: Ovariectomies were performed on six female Sprague-Dawley rats, each sedated with 1 mg of sodium barbiturate I.P. Sham operations were carried out a second group of six rats. The rats were given two weeks to recover from the operations. The six ovariectomized rats were injected subcutaneously with 100 μl of a 0.1% acetic acid solution containing 100 μg of the chemically synthesized peptide (SEQ ID NO:11) every 24 hours for 28 days. […] A second group of six ovariectomized rats, was similarly treated with a 0.1% acetic acid solution containing no peptide over the same 28 day period. A third group of six rats, each of which had undergone the sham operation, was similarly treated with a 0.1% acetic acid solution containing no peptide over the same 28 day period. A fourth group of six intact rats was similarly treated with a 0.1% acetic acid solution containing no peptide over the same 28 day period. The bone mineral apposition rate was determined, as described previously, by measurement of the lower metaphysis of the left femur. The results are tabulated in Table Six and graphically depicted in FIG. 25.

Series [7] concerns ovariectomized rats. Put plainly: Right femoral bone calcium density of ovariectomized rats. The series is classed as in vivo, rat. The protocol:
Ovariectomies were performed on six female Sprague-Dawley rats, each sedated with 1 mg of sodium barbiturate I.P. Sham operations were carried out a second group of six rats. The rats were given two weeks to recover from the operations. The six ovariectomized rats were injected subcutaneously with 100 μl of a 0.1% acetic acid solution containing 100 μg of the chemically synthesized peptide (SEQ ID NO:11) every 24 hours for 28 days. […] The right femur of each rat was decalcified separately. The decalcification fluid consisted of 10% formic acid (v/v) and 5% sodium citrate (w/v) at pH 3.0. Each bone was placed in 6 ml of the decalcification fluid. The fluid was […] days, again after another 4 days, again after another 2 days, and again after another 3 days. After another 2 days, the decalcification fluid was removed and replaced by deionized water, and the sample agitated for 2 days. The water changed after two days and again after another day. […] The volume of each right femur was determined by determining the volume of water displaced when the bone was immersed in water. The calcium concentration of each sample was determined according to standard methods and the calcium density of each bone calculated. […] The right femurs were decalcified and calcium density determined as before.

Where [8] appears, read: 0.1 ml of 1 mg per ml solution, subcutaneous, right thigh, lower metaphysis of right femur, control 1.02.

On to `CN(C)[C@@H]1C(O)=C(C(N)=O)C(=O)[C@@]2(O)C(O)=C3C(=O)c4c(O)cccc4[C@@](C)(O)[C@H]3C[C@@H]12` [tetracycline], for which the “clearance from the circulation” value in series [1] is on record as “cleared from the circulation within half an hour”.
For “Ac-GIGKRTNEHTADCKIKPNTLHKKAAETLMVLDQNQP [SEQ ID NO:12]”, the “histological evaluation of selected tissues (toxic lesions)” value in series [2] is recorded as “No evidence of toxic lesions was found”. In addition, the pathology at autopsy result in the series on ovariectomized rats [3] is recorded as “No obvious pathology was observed”.
For “GIGKRTNEHTADAKIKPNTLHKKAAETLMVLDQNQP [SEQ ID NO:13]”, the bone apposition rate result in the series on intact rats [4] (0.1 ml of 1 mg per ml solution s.c., compared with control and normal peptide) is on record as “significantly greater than that for those of the control group but below the bone apposition rate shown for the rats injected with the normal peptide”. Moreover, the “bone mineral apposition rate, Mean” value with intact rats [4] (setting [8]) amounted to 1.35 μm/d.
On to “GIGKRTNEHTADCKIKPNTLHKKAAETLMVLDQNQP [SEQ ID NO:11]”, for which the “bone apposition rate, Mean” value in the series on intact rats [5] (25 μg in 1 ml, single intramuscular injection, lower metaphysis of right femur, vehicle control 1.03) was determined as 1.35 μm/d. The “bone mineral apposition rate, Mean” value in the series on intact rats [5] (25 μg single intramuscular injection, lower femoral epiphysis, control 0.85) amounted to 1.05 μm/day; with ovariectomized rats [6], 0.90 μm/day; in the series on intact rats [4] (50 μg single intramuscular injection, lower femoral epiphysis, control 0.85), 1.15 μm/day; in the series with intact rats [4] (100 μg single intramuscular injection, lower femoral epiphysis, control 0.85), 1.32 μm/day; in the series with intact rats [4] (setting [8]) it was 1.67 μm/d. Further, in the series with ovariectomized rats [7] (100 μg s.c. daily for 28 days, ovariectomized rats), the bone calcium concentration result was “appears to be normal”. In the series with ovariectomized rats [7] (100 μg s.c. every 24 hours for 28 days, starting two weeks after ovariectomy, untreated OVX 6.61, sham 7.45, intact 7.69), the “Right Femoral Calcium Concentration, Mean” value turned out to be 7.57 µmol/mL. For the same compound, the “dose dependency of stimulant effect” value with intact rats [4] (25-100 μg, intramuscular) is on record as “increases with the amount of peptide administered”.
For the compound “expressed polypeptide: human polypeptide (SEQ ID NO:11 sequence) expressed in E. coli JM 103 from pUC 8 plasmid, purified by C3 HPLC (GIGKRTNEHTADCKIKPNTLHKKAAETLMVLDQNQP)”, in the series with intact rats [5] (0.7 and 0.3 O.D. (280 nm) units injected, intact 400-420 g male rats vs carrier buffer), the “effect on bone formation” value is “appears to have a stimulant effect on bone formation; also recorded: showed biological activity”.
